Reference: patent US11746100B2 (GLOBAL BLOOD THERAPEUTICS, INC., priority 2020, dated 2023)

Biological target: T1, human ferroportin (Homo sapiens, UniProt Q9NP59)
T1 construct: luciferase reporter (read with the Nano-Glo Luciferase Assay System); expressed in transfected cells; host or cells: CHO cells, stably transfected, expression induced with doxycycline
T1 sequence (Q9NP59 1-571): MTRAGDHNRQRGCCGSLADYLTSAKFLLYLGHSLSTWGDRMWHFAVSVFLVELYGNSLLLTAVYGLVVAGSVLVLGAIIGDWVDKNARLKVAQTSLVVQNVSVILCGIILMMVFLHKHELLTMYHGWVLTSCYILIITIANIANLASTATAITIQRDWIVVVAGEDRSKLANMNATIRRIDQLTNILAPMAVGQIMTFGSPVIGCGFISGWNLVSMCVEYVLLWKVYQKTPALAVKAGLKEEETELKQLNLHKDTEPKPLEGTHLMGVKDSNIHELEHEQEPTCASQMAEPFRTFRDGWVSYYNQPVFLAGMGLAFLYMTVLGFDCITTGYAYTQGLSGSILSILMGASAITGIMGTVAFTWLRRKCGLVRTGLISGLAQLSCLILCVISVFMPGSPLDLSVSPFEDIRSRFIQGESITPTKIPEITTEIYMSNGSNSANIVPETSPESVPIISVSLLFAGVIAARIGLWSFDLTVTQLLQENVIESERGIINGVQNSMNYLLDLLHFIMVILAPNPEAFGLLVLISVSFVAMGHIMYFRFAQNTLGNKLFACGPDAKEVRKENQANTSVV
Test: Biological in-vitro ferroportin internalization assay (luciferase reporter)
Assay type: cell-based
Details: average pEC50; stably-transfected CHO cell line expressing human ferroportin tagged to a luciferase reporter; 6 h incubation with test compound
Summary of the method: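 Stably transfected CHO cells expressing luciferase-tagged human ferroportin, plated 24 h with ferric ammonium citrate and induced with doxycycline for 24 h. Compounds incubated 6 h, then luciferase activity measured by Nano-Glo; average pEC50 reported.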

With `C[C@@H](CN(C)C)Oc1ccnc(-c2nc3c(c(N(C)CC(=O)NC(C)(C)C)n2)CCC3)c1` [Compound 402, N-tert-butyl-2-{[2-(4-{[(2S)-1-(dimethylamino)propan-2-yl]oxy}pyridin-2-yl)-5H,6H,7H-cyclopenta[d]pyrimidin-4-yl](methyl)amino}acetamide] as the molecule, how does the pEC50 read?
Its pEC50 is 7.8.

For `COc1cccc(NC(=O)CN(C)c2nc(-c3cc(OCCO)ccn3)nc3c2CCC3)c1` [Compound 279, 2-({2-[4-(2-hydroxyethoxy)pyridin-2-yl]-5H,6H,7H-cyclopenta[d]pyrimidin-4-yl}(methyl)amino)-N-(3-methoxyphenyl)acetamide], which pEC50 is on record?
Its pEC50 is 8.2.

With `Cc1ccnc(-c2nc3c(c(N(C)CC(=O)NC(C)(C)CO)n2)CCC3)c1` [Compound 62, N-(1-hydroxy-2-methylpropan-2-yl)-2-{methyl[2-(4-methylpyridin-2-yl)-5H,6H,7H-cyclopenta[d]pyrimidin-4-yl]amino}acetamide] as the molecule, how does the pEC50 read?
The pEC50 was 7.6.

For `CN(CC(=O)NC(C)(C)C)c1nc(-c2cccc(OCCO)n2)nc2c1CCC2` [Compound 39, N-tert-butyl-2-({2-[6-(2-hydroxyethoxy)pyridin-2-yl]-5H,6H,7H-cyclopenta[d]pyrimidin-4-yl}(methyl)amino)acetamide], which pEC50 is on record?
Its pEC50 is 6.3.

With `COc1cccc2c1CCN(c1nc(-c3ccccn3)nc3c1CCC3)CC2` [Compound 3, 6-methoxy-3-[2-(pyridin-2-yl)-5H,6H,7H-cyclopenta[d]pyrimidin-4-yl]-2,3,4,5-tetrahydro-1H-3-benzazepine] as the molecule, how does the pEC50 read?
Its pEC50 is 6.8.

For `O=C(CNc1nc(-c2ccccn2)nc2c1CCC2)Nc1ccccc1F` [Compound 6, N-(2-fluorophenyl)-2-{[2-(pyridin-2-yl)-5H,6H,7H-cyclopenta[d]pyrimidin-4-yl]amino}acetamide], which pEC50 is on record?
The pEC50 was 6.5.

How did the pEC50 turn out when `C[C@H](C(=O)NC(C)(C)C)N(C)c1nc(-c2cc(O[C@@H]3CCN(C)C3)ccn2)nc2c1CCC2` [Compound 503, (2R)—N-tert-butyl-2-{methyl[2-(4-{[(3R)-1-methylpyrrolidin-3-yl]oxy}pyridin-2-yl)-5H,6H,7H-cyclopenta[d]pyrimidin-4-yl]amino}propanamide] was run?
The pEC50 was 8.5.

Which pEC50 does the source give for `CN(CC(=O)Nc1ccc(Cl)cc1)c1nc(-c2cc(OC3COC3)ccn2)nc2c1CCC2` [Compound 325, N-(4-chlorophenyl)-2-[methyl({2-[4-(oxetan-3-yloxy)pyridin-2-yl]-5H,6H,7H-cyclopenta[d]pyrimidin-4-yl})amino]acetamide] here?
Its pEC50 is 7.9.

With `COc1ccc(NC(=O)CN(C)c2nc(-c3cn(C)cn3)nc3c2CCC3)cn1` [Compound 201, N-(6-methoxypyridin-3-yl)-2-{methyl[2-(1-methyl-1H-imidazol-4-yl)-5H,6H,7H-cyclopenta[d]pyrimidin-4-yl]amino}acetamide] as the molecule, how does the pEC50 read?
The pEC50 was 7.4.

`COc1ccnc(-c2nc3c(c(N(C)CC(=O)NC4CCOC4)n2)CCC3)c1` (stereo not shown) [Compound 135, 2-{[2-(4-methoxypyridin-2-yl)-5H,6H,7H-cyclopenta[d]pyrimidin-4-yl](methyl)amino}-N-(oxolan-3-yl)acetamide] was tested. Which pEC50 did it give?
Its pEC50 is 7.4.

`CN(CC(=O)NC(C)(C)C)c1nc(-c2cc(OCCN3C[C@@H]4C[C@H]3CO4)ccn2)nc2c1CCC2` [Compound 461, N-tert-butyl-2-{methyl[2-(4-{2-[(1S,4S)-2-oxa-5-azabicyclo[2.2.1]heptan-5-yl]ethoxy}pyridin-2-yl)-5H,6H,7H-cyclopenta[d]pyrimidin-4-yl]amino}acetamide] was tested. Which pEC50 did it give?
The pEC50 was 8.3.

Which pEC50 does the source give for `CN(CC(=O)NC1(C)CCOC1)c1nc(-c2cc3cn[nH]c3cn2)nc2c1CCC2` (stereo not shown) [Compound 185, 2-[methyl(2-{1H-pyrazolo[3,4-c]pyridin-5-yl}-5H,6H,7H-cyclopenta[d]pyrimidin-4-yl)amino]-N-(3-methyloxolan-3-yl)acetamide] here?
Its pEC50 is 7.2.

`CN(CC(=O)NC1(C)CCC1)c1nc(-c2cc(OCCO)ccn2)nc2c1CCC2` [Compound 376, 2-({2-[4-(2-hydroxyethoxy)pyridin-2-yl]-5H,6H,7H-cyclopenta[d]pyrimidin-4-yl}(methyl)amino)-N-(1-methylcyclobutyl)acetamide] was tested. Which pEC50 did it give?
The pEC50 was 8.

How did the pEC50 turn out when `CN(CC(=O)Nc1cnn(C)c1)c1nc(-c2cn(C)cn2)nc2c1CCC2` [Compound 220, N-(1-methyl-1H-pyrazol-4-yl)-2-{methyl[2-(1-methyl-1H-imidazol-4-yl)-5H,6H,7H-cyclopenta[d]pyrimidin-4-yl]amino}acetamide] was run?
The pEC50 was 7.

With `CN(C)CCOc1ccnc(-c2nc3c(c(N(C)CC(=O)NC4(C(F)(F)F)CC4)n2)CCC3)c1` [Compound 418, 2-[(2-{4-[2-(dimethylamino)ethoxy]pyridin-2-yl}-5H,6H,7H-cyclopenta[d]pyrimidin-4-yl)(methyl)amino]-N-[1-(trifluoromethyl)cyclopropyl]acetamide] as the molecule, how does the pEC50 read?
The pEC50 was 7.5.

For `COc1ccnc(-c2nc3c(c(N(C)CC(=O)NC4(C(F)(F)F)CC4)n2)CCC3)c1` [Compound 99, 2-{[2-(4-methoxypyridin-2-yl)-5H,6H,7H-cyclopenta[d]pyrimidin-4-yl](methyl)amino}-N-[1-(trifluoromethyl)cyclopropyl]acetamide], which pEC50 is on record?
The pEC50 was 7.3.
